Data from US8614103B2, “Compositions and methods for treating sphingosine-1-phosphate (S1P) related ocular diseases and conditions” (Lpath, Inc., priority 2006, dated 2013).

Key:
[1] = test system: DU145 tumor; experiment: SC DU145 prostate tumor xenograft in nude NCr mice; assay type: in vivo, mouse; conditions: LT1009 50 mg/kg ip q2d; Avastin 20 mg/kg q4d; Paclitaxel 7.5 mg/kg q1d×5
Procedure: Nude mice were implanted sc near the right flank with one fragment per mouse of DU145 tumor from an in vivo passage. All treatments were initiated the day when 60 mice in each experiment established tumors ranging in size from approximately 100 to 200 mm^3. […] Paclitaxel and Avastin were administered iv and ip at a dosage of 7.5 mg/kg/dose and 20 mg/kg/dose, q1d×5 and q4d, respectively, injected in a volume of 0.1 mL/10 g body weight.
During the course of the study tumor growth was monitored by measuring the sc tumors on three axes and calculating the volume. At the end of the study final tumor weights and volumes were determined and then the mice were sacrificed, the tumors harvested. Microvascular densities (MVD) of the tumors were then determined by CD-31 staining.

[2] = test system: HT29 tumor; experiment: SC HT29 colorectal tumor xenograft in nude NCr mice; assay type: in vivo, mouse; conditions: LT1009 50 mg/kg ip q2d; Avastin 20 mg/kg q4d; 5-FU 75 mg/kg q4d
Procedure: Nude mice were implanted sc near the right flank with one fragment per mouse of HT29 tumor from an in vivo passage. All treatments were initiated the day when 60 mice in each experiment established tumors ranging in size from approximately 100 to 200 mm^3. There were ten mice per treatment group. […] 75 mg/kg 5-FU and 20 mg/kg Avastin were administered ip and iv at a dosage of 75 mg/kg/dose and 20 mg/kg/dose, respectively, q4d, injected in a volume of 0.1 mL/10 g body weight.
(§1) Animals were observed daily for mortality. Tumor dimensions and body weights were collected twice weekly starting with the first day of treatment and including the day of study termination. When the median tumor in the vehicle-treated control group in each study reached approximately 4,000 mg, the study was terminated. Tumors from each animal were harvested, wet weights were recorded, and tumors were processed for determination of MVD by CD-31 staining. Tumor weights (mg) were calculated using the equation for an ellipsoid sphere (l×w^2)/2=mm^3, where l and w refer to the larger and smaller dimensions collected at each measurement and assuming unit density (1 mm^3=1 mg).

[3] = test system: COLO 205 tumor; experiment: SC COLO205 colorectal tumor xenograft in nude NCr mice; assay type: in vivo, mouse; conditions: LT1009 50 mg/kg ip q3d; Avastin 40 mg/kg iv q7d; Paclitaxel 15 mg/kg iv q1d×5
Procedure: Nude mice were implanted sc near the right flank with one fragment per mouse of COLO 205 tumor from an in vivo passage. All treatments were initiated the day when 60 mice in each experiment established tumors ranging in size from approximately 100 to 200 mm3. […] Avastin was administered iv at a dosage of 40 mg/kg/dose on a q7d schedule, injected in a volume of 0.1 mL/20 g body weight. Paclitaxel (positive control), was administered iv at a dosage of 15 mg/kg/dose on a q1d×5 schedule, injected in a volume of 0.1 mL/10 g body weight.
as §1, with “recorded,” for “recorded, and”, “microvascular densities (MVD)” for “MVD”

[4] = test system: human retinal pigmented epithelial cells; experiment: α-SMA expression in retinal pigmented epithelial cells; assay type: cell-based; conditions: back to basal levels at 10 μM
From the text: (§2) In many of these disorders, circulating growth factors and chemokines promote the transformation of normal ocular cells into fibrocontractile, scar tissue-producing cells that have been termed “myofibroblasts”. Normally, myofibroblasts are responsible for tissue repair as part of the wound healing response following injury. However altered number and function of myofibroblasts are implicated in diseases characterized by pathological scar tissue formation in the liver, skin, lung, kidney, heart and eyes. In the eye, transformation of retinal pigmented epithelial (RPE) cells to a myofibroblast phenotype is linked to formation of fibro-contractile membranes which cause retinal detachment and subsequent vision impairment. In addition, myofibroblast transformation of ocular fibroblasts can result in abnormal scar tissue production after eye injury leading to subsequent vision loss. Although many of the circulating protein factors in the eye that promote myofibroblast formation have been identified, nothing is known regarding the role of lysolipids such as S1P in this process. Therefore, we examined the effects of S1P on myofibroblast transformation of several human ocular cell lines.
(§3) In these experiments, the ability of S1P to promote α-SMA expression differed in a concentration dependent manner between the retinal pigmented epithelial cells and conjunctiva fibroblasts. […]

[5] = test system: human conjunctiva fibroblasts; experiment: α-SMA expression in conjunctiva fibroblasts; assay type: cell-based; conditions: only at this concentration
From the text: as §2, §3

[6] = test system: human conjunctiva fibroblasts; experiment: PAI-1 expression in conjunctiva fibroblasts; assay type: cell-based
From the text: Collagen is one of the primary structural proteins that supports all tissues in the body and is one of the main components of scar tissue. In the non-pathological setting, total collagen content within tissue is maintained via a balance between collagen production by fibroblasts and degradation by certain enzymes. A number of disorders that involve increased levels of scar tissue result, in part, from physiological and molecular processes that inhibit degradation of collagen that is need for scar formation. It was hypothesized that the ability of S1P to promote scar tissue formation may result from its ability to inhibit collagen degradation, thereby leading to net increases in scar tissue within organs. Therefore, the effects of S1P on expression of plasminogen activator inhibitor (PAI-1) in human conjunctiva fibroblasts were examined.

Compound: Avastin: anti-angiogenic drug, bevacizumab (Avastin®, Genentech)
- Final Tumor Weights [1]: 578 mg
- % Reduction compared to Vehicle-Treated Mice [2]: 30%
- Final Tumor Weights [2]: 1927.44 mg
- Final Tumor Weights [3]: 1967.90 mg

Compound: CCCCCCCCCCCCC/C=C/[C@@H](O)[C@@H](N)COP(=O)(O)O [S1P, sphingosine-1-phosphate]
- concentration at which a significant increase in α-SMA expression was observed [4]: 0.001 µM
- concentration at which a significant increase in α-SMA expression was observed [5]: 10 µM
- PAI-1 expression [6]: stimulates the PAI-1 expression in a dose-dependent manner
